Data taken from patent US5330992A, “1-cyclopropyl-4-pyridyl-quinolinones” (priority 1992, dated 1994).
pIC50: −log10 of the molar value.

Key:
[1] = test system: P388 murine leukemia cells; test: Malignant cell cytotoxicity, one-hour exposure (clonogenic survival in soft agar); type: cell-based; details: Mus musculus, 1 hr exposure, read-out: IC50 P388 1 hr. exp.
Method: (§1) Examples of compound I having Topo II activity were tested for malignant cell cytotoxicity. In vitro cytotoxicity was assayed by determining cell survival following exposure of P388 murine leukemia cells to a range of test compound concentrations. Cytotoxicity was quantitated following either a one-hour exposure or continuous exposure of P388 cells to test compound.
(§2) Cytotoxicity following a one-hour exposure of cells to drug was assayed by quantitating clonogenic cell survival according to a published procedure [Freshney, R. L. (1987) Culture of Animal Cells. A Manual of Basic Technique. Wiley-Liss Inc., New York, N.Y., pp. 140-144]. Briefly, following drug exposure cells were plated in soft agar and incubated (37°, 5% CO2) for 7-10 days during which time viable cells form visible colonies. Cytotoxicity following continuous exposure of cells to test compound was assayed by quantitating total P388 cells on a Coultier Counter following a 48-hour co-incubation of test compound with cells. P388 cells were maintained in log phase throughout the duration of cytotoxicity assays.
(§3) The percentage of cells surviving relative to an untreated control was graphed as a function of increasing drug concentration.

[2] = test system: P388 murine leukemia cells; test: Malignant cell cytotoxicity, continuous 48-hour exposure (Coulter Counter); type: cell-based; details: Mus musculus, read-out: IC50 P388 cont. exp.
Method: as §1, §2, §3

[3] = In vivo antitumor assay, Panc03(sc); set-up: species or system mouse; details: mouse, in vivo
Excerpt: (§4) Mice: Inbred: C3H/He and NCR-nu; and Hybrids: B6D2Fl (C57BL/6 females X DBA/2 males, CD2Fl (Balb/c females X DBS/2 males) and B6x C3fl (C57BL/6 x C3H) were bred at Wayne State University from strained obtained from the Frederick Cancer Research Facility, Frederick, Md. or purchased from commercial suppliers.
(§5) Tumors: Murine Tumor: P388 and an adriamycin-resistant (ADR) subline P388/ADR leukemia and the following transplantable solid tumors of mice were used for in Vivo testing: B16 melanoma (B16), pancreatic ductal adenocarcinoma No. 03 (Panc 03), colon adenocarcinoma No. 38 (colo 38), mammary ductal adenocarcinoma No. 16/C (Mam16) and an adriamycin-resistantsubline Mam16C/ADR. Human tumor: A single human tumor, mammary carcinoma MX-1 (MX1) was used for in vivo testing. All tumors are in the Developmental Therapeutics Program frozen tumor respository, maintained by the Biological Testing Branch, Frederick Md. Each has a detailed description, code identification number, and list of references at the National Tumor Repository. Murine tumors were maintained in the mouse strain of origin and were transplanted in the appropriate F1 hydrid (or the strain of origin) for therapy trials. Human mammary carcinoma MX-1 MX1) was maintained as a subcutaneous implant in either athymic Swiss (Cr: NIH(S)-nu) or athymic random bred (NCR-nu) mice and transplanted in NCR-nu for therapy trials.
(§6) Chemotherapy: For pancreatic ductal adenocarcinoma No. 3, colon adenocarcinoma No. 38 (colo38), lung carcinoma No. 12 (LC12) and both adriamycin-sensitive (RP) and -resistant ADR) mammary ductal adenocarcinoma No. 16 (Mam16) tumors, the following methods were used to help ensure a more uniform tumor burden per mouse (thus reducing the requirement for greater numbers of mice per group), bilateral tumor implants were used. The animals necessary to begin an experiment were pooled, implanted bilaterally s.c. on day zero with 30-60-mg tumor fragments using a 12-gauge trocar, and again pooled before randomization to the various treatment and control groups. Chemotherapy was started within three days after tumor implantation while the number of cells per mouse was relatively small (1×10^7 […]).
(§7) Quantitative end points used assess antitumor activity included % Increased Life Span (% ILS), Tumor Cell Kill (Log10 kill), and Tumor Growth Inhibition (T/C). Long Term Survivors (45 or 60 day) were excluded from calculations of % ILS and Tumor Cell Kill.
(§8) The log10 cell kill was calculated from the following formula: [formula] where T-C is the tumor difference in the median day of death between the treated (T) and the control (C) groups and Td is the tumor doubling time (in days), the latter estimated from the best fit straight line from a log-linear growth plot of the control-group tumors in exponential growth. The conversion of the T-C values to log10 cell kill is possible because the Td for tumors regrowing post-treatment approximated the Td values of the tumors in untreated control mice.
(§9) Tumors were measured with a caliper once or twice weekly (as needed) until either tumors exceeded 1600 mg or cure was assured. Tumor weights were estimated from two-dimensional measurements: Tumor Weight (mg)=(a×b^2) / 2, where a and b are the tumor length and width (nun) respectively. Measurements were carried out simultaneously in both treatment and control groups. When the control group tumors reached approximately 750-1500 mg in size (median of group), the median tumor weight of each group was determined (including zeros). The T/C value in percent is an indiation of antitumor effectiveness. The % T/C was calculated from the following formula for solid murine tumor models: [formula] where T and C are median tumor weights of the treatment and control groups, respectively. A T/C equal to or less than 42% is considered significant antitumor activity. […]

[4] = test system: pancreatic ductal adenocarcinoma No. 03 (Panc 03); test: In vivo antitumor assay, Panc03(sc); set-up: species or system mouse
Excerpt: as §4, §5, §6, §7, §8, §9

[5] = In vivo antitumor assay, B16(ip); set-up: species or system mouse; details: mouse, in vivo, drug route ip, qd 1,5,9
Excerpt: as §4, §5
(§10) For P388 and P388/ADR leukemia studies the tumor cells were implanted either IP or intravenously (IV) on day zero and treatment was started on day one. For B16 melanoma (B16) studies, the tumor cells were implanted IP on day zero and treatment was started on day one. Tirered controls were also included to facilitate the calculation of tumor cell kill. For mammary carcinoma MX-1 studies, tumors were implanted with 1) subcutaneously (sc) (14-mg fragment of s.c. donor tumor) in the axillary region or 2) under the subrenal capsule (src) (10×10×10 ocular micrometer unit fragment of s.c. donor tumor). Treatment started on the day after subrenal capsule tumor implant or when the subcutaneous tumor implant had reached 100-700 mg.
as §7
(§11) Endpoints were calculated as follows: % ILS [formula] where Dt is the median day of death for treated and Dc is the median day of death for control groups. A % ILS ≥20 or ≥25 for P388 and B16 intraperitoneal models, respectively, is indicative of a significant degree of antitumor activity. A % ILS ≥75 or ≥50 for P388 and B16 intraperitoneal models, respectively, is indicative of a high degree of antitumor activity and is the level used by National Cancer Institute to justify further development if other requirements are met (termed DN-2 level activity). Minimum quantitative activity limits for additional P388 models (e.g. P388/ADR and P388, IJV) have not been defined. However, the activity limits specified for the intraperitoneal models may be applied as in the majority of instances these models are found to be signficantly […] challenging.
as §8

[6] = test system: B16 melanoma (B16); test: In vivo antitumor assay, B16(ip); set-up: species or system mouse; details: drug route ip; for ILS %: qd 1,5,9, increased life span; for LOG KILL: qd 1,5,9, log10 cell kill
Excerpt: as §4, §5, §10, §7, §11, §8

[7] = drug route iv, Ex 26 qd 4-11, Ex 30 qd 3-11, Ex 33 qd 3-4,7,10, read-out: MTD
[8] = drug route iv, Ex 26 qd 4-11, Ex 30 qd 3-11, Ex 33 qd 3-4,7,10

Structure (SMILES) | pIC50 [1] | pIC50 [2] | MTD [3, 7] [mg/kg] | MTD ([3]; drug route sc, Ex 26 qd 3,5-7 bid 4, read-out: MTD) [mg/kg] | T/C % [4, 8] [%] | LOG KILL ([4]; drug route iv, qd 4-11, log10 cell kill) | T/C % ([4]; drug route sc, Ex 3 qd 3-12, Ex 26 qd 3,5-7 bid 4) [%] | MTD [5] [mg/kg] | ILS % [6] [%] | LOG KILL [6]
Cc1cc(-c2c(F)cc3c(=O)c(Cc4c(O)cccc4O)cn(C4CC4)c3c2F)cc(C)n1 [Example 26, 1-Cyclopropyl-6,8-difluoro-7-[2,6-dimethyl-4-pyridinyl]-3-[2,6-dihydroxyphenylmethyl]-1,4-dihydroquinoline-4-one] | 6.60 | 7.26 | 12 | 840 | 0 | 1.7 | 19 | 8.1 | 94 | 2.2
Cc1cc(-c2c(F)cc3c(=O)c(Cc4ccccc4O)cn(C4CC4)c3c2F)cc(C)n1 [Example 30] | 6.17 | 6.54 | 235 |  | 5 |  |  | 304 | 88 | 2.0
Cc1cc(-c2c(F)cc3c(=O)c(Cc4ccc(O)cc4O)cn(C4CC4)c3c2F)cc(C)n1 [Example 33] | 6.68 | 7.21 | 19 |  | 73 |  |  | 19 | 94 | 2.2
